# Test results taken from patent US20040198738A1, “Preventives or remedies for diseaes caused by enos expression” (priority 2002, published 2004).
# Assays:
# [1] = from treatment for Parkinson's disease in Japanese Patent Laid-Open No. 59-25323; cited from earlier work
# [2] = Acute toxicity of BH4 dihydrochloride in rat, oral administration; type: in vivo
# Description: The active ingredient used in the present invention is most preferably (6R)-L-erythro-5,6,7,8-tetrahydrobiopterin (BH4) or a salt thereof. However, analogues thereof such as (6R, S)-5,6,7,8-tetrahydrobiopterin, 1′,2′-diacetyl-5,6,7,8-tetrahydrobiopterin, sepiapterin, 6-methyl-5,6,7,8-tetrahydropterin, 6-hydroxymethyl-5,6,7,8-tetrahydropterin, 6-phenyl-5,6,7,8-tetrahydropterin, or a salt thereof, may also be used. However, needless to say, BH4 that is a natural substance existing in an organism is preferable. […] In addition, as is clear from the description of a treatment for Parkinson's disease in Japanese Patent Laid-Open No. 59-25323, the toxicity of (6R, S)-5,6,7,8-tetrahydrobiopterin, that is, non-optically pure substance, is weak. Accordingly, this compound can also be used for the treatment in the present invention. Compounds represented by the formula (I) other than the above described compounds have almost no acute toxicity.
# [3] = tested on: NO from aortic endothelium of ApoE-KO/eNOS-Tg mice; test: Production of NO in excised aorta (DAF-2 DA fluorescence, acetylcholine stimulated); type: in vivo, mouse; conditions: 12-week-old mice, high cholesterol diet for 8 weeks, BH4 administered vs not administered; FIG. 5; p<0.01
# Description: The aorta containing the portion from the aortic arch to the bifurcation portion of the iliac artery was excised from each of 12-week-old mice (ApoE-KO/eNOS-Tg) fed on a high cholesterol diet for 8 weeks. Immediately thereafter, surrounding portions were eliminated in PBS with pH 7.4. The sample was mounted on a black dish filled with a phosphate buffer (pH 7.4) containing 1.5 mmol/L calcium chloride, and it was then placed in a light-shielding box to avoid interference of external light.
# Diaminofluorescein-2 diacetate (DAF-2 DA) was added thereto to the final concentration of 10 μmol/L. Then, the sample was left at ambient temperature for 5 minutes, and thereafter, it was excited with 485 nm blue light. The fluorescence generated as a result of the reaction between DAF-2 DA and NO was detected, using a luminograph equipped with a band filter with a center of 532 nm, and measurement was carried out for 1 second at an intensity of wave length of 515 nm. To examine the production of NO from the aortic endothelium, the sample was left in 1 μmol/L acetylcholine solution for 5 minutes, and then the fluorescent image was measured. After completion of each experiment, in order to determine whether the measured sample was a plaque area or non-plaque area, the sample was stained with Sudan III and observed. […]
# ApoE-KO/eNOS-Tg mice = test: Sclerotic lesion area of aorta (Sudan III staining, image analysis) in mice fed high cholesterol diet; type: in vivo, mouse; conditions: BH4 10 mg/kg/day added to high cholesterol diet, FIG. 3
# Description: 37 mice (ApoE-KO/eNOS-Tg) produced in Example 10 were ablactated at the age of 4 weeks, and then fed on high cholesterol diet (1.25% cholesterol, 7.5% cacao butter, 7.5% casein, and 0.5% sodium cholate) for 12 weeks.
# Thereafter, the 16-week-old mice were anesthetized with pentobarbital, and the aorta was perfused with a physiological saline solution containing 10 U/ml heparin. Thereafter, the aorta corresponding to the portion from the center of the left ventricle to the bifurcation portion of the iliac artery was excised and fixed with 4% paraformaldehyde overnight. Surrounding tissues were eliminated from the distal portion (from the aortic arch to the bifurcation portion of the iliac artery) of the excised aorta. The aorta was longitudinally opened and fixed on a dish coated with silicone, and then stained with Sudan III. The obtained light microscope image was analyzed using NIH 1.61 Imaging Software. The lesion formation area was expressed by lesion area/the total area of aorta. In the figure, * denotes p<0.0001 with respect to ApoE-KO male, and the cross denotes p<0.001 with respect to ApoE-KO female.
# 6 to 8 mice (ApoE-KO/eNOS-Tg) produced in Example 10 were used per group. BH4 non-administration groups were fed on the high cholesterol diet (refer to Example 10), and BH4 administration groups were fed on the high cholesterol diet to which BH4 was added at 10 mg/kg/day. […]
# [4] = tested on: superoxide in plaque area of aorta of ApoE-KO/eNOS-Tg mice; test: Production of superoxide in excised aorta (MCLA chemiluminescence); type: in vivo, mouse; conditions: BH4 added high cholesterol diet for 8 weeks, 12 weeks old mice; vs non-administration; FIG. 4; p<0.01
# Protocol: Groups were prepared, each of which consisted of 6 to 8 mice (12 weeks old, ApoE-KO/eNOS-Tg) fed on BH4 added or BH4 non-added high cholesterol diet for 8 weeks in the same manner as in Example 12. The aorta was excised from these mice, peripheral tissues were eliminated, and the remaining portion was mounted on a black silicone dish filled with PBS with pH 7.4. The sample was placed in a light-shielding box to avoid interference of external light, and thereafter, MCLA was added to the chamber to the final concentration of […]. Thereafter, light emission generated as a result of the reaction between MCLA (2-methyl-6-(4-methoxyphenyl)-3,7-dihydroimidazol[1,2-a]pyrazin-3-one-hydrochloride) and superoxide anion was measured for 5 minutes. This measurement was repeated 3 times.
# The light emission data was served in a computer, and the obtained nonlinear gray scale images were converted into pseudocolor images. The intensity of chemiluminescence due to superoxide was analyzed using WinLight 32 software. The plaque area was defined as an area that was stained with Sudan III. Approximately 10 plaque areas and 10 non-plaque areas ([…]) were randomly selected from each mouse, followed by measurement. The background level was subtracted from each chemiluminescent signal intensity. […] The results are shown as relative values. […]
structure (smiles),measurement,setting,value
"C[C@H](O)[C@H](O)C1CNc2nc(N)[nH]c(=O)c2N1 (stereo partly drawn) [(6R, S)-5,6,7,8-tetrahydrobiopterin]",toxicity,[1],weak
C[C@H](O)[C@H](O)[C@H]1CNc2[nH]c(N)nc(=O)c2N1.Cl.Cl [BH4 dihydrochloride],acute toxicity,[2],≥ 2 g/kg (body weight)
same,toxicity (in words),[2],almost no toxicity is found
"CC(O)C(O)C1CNc2nc(N)[nH]c(=O)c2N1 [BH4, (6R)-L-erythro-5,6,7,8-tetrahydrobiopterin]",production of NO in non-plaque area,[3],significantly increased
same,arteriosclerosis,ApoE-KO/eNOS-Tg mice,suppressed
same,lesion area (lesion area/total area of aorta),"ApoE-KO/eNOS-Tg mice; vs non-administration group, p<0.05 male, p<0.01 female",reduced
same,production of superoxide in plaque area,[4],significantly reduced
